Experimental data: the supplement of paper PMC10307832

Columns and labels:
Experiment in all cases: relative viability (nuclei count vs DMSO), 5 days (fraction); higher = more cells survive
Dovitinib + AZD7762 = compound: CN1CCN(c2ccc3nc(-c4c(N)c5c(F)cccc5[nH]c4=O)[nH]c3c2)CC1 [Dovitinib] + NC(=O)Nc1cc(-c2cccc(F)c2)sc1C(=O)N[C@H]1CCCNC1 [AZD7762] (partner 0.2 µM)
Summary of the method: (§1)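 Relative viability is defined as nuclei in treated wells over nuclei in vehicle wells. Duplicate plates were run and medians reported. Lung cancer cell lines in 1536-well plates were dosed by pin tool one day after seeding, with one drug or with a fixed anchor-drug dose plus five library-drug doses (not always all listed) in √10 steps, and nuclei were counted after 5 days.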

Dovitinib + Alpelisib = compound: CN1CCN(c2ccc3nc(-c4c(N)c5c(F)cccc5[nH]c4=O)[nH]c3c2)CC1 [Dovitinib] + Cc1nc(NC(=O)N2CCC[C@H]2C(N)=O)sc1-c1ccnc(C(C)(C)C(F)(F)F)c1 [Alpelisib] (partner 2 µM)
Summary of the method: as §1

Dovitinib + Phenformin = compound: CN1CCN(c2ccc3nc(-c4c(N)c5c(F)cccc5[nH]c4=O)[nH]c3c2)CC1 [Dovitinib] + N=C(N)NC(=N)NCCc1ccccc1 [Phenformin] (partner 250 µM)
Summary of the method: as §1

Dovitinib + Pictilisib = compound: CN1CCN(c2ccc3nc(-c4c(N)c5c(F)cccc5[nH]c4=O)[nH]c3c2)CC1 [Dovitinib] + CS(=O)(=O)N1CCN(Cc2cc3nc(-c4cccc5[nH]ncc45)nc(N4CCOCC4)c3s2)CC1 [Pictilisib] (partner 1 µM)
Summary of the method: as §1

Cell Line | relative viability (Dovitinib + AZD7762; first compound 0.02 µM) | relative viability (Dovitinib + AZD7762; first compound 0.06325 µM) | relative viability (Dovitinib + AZD7762; first compound 0.2 µM) | relative viability (Dovitinib + AZD7762; first compound 0.6325 µM) | relative viability (Dovitinib + AZD7762; first compound 2 µM) | relative viability (Dovitinib + Alpelisib; first compound 0.02 µM) | relative viability (Dovitinib + Alpelisib; first compound 0.06325 µM) | relative viability (Dovitinib + Alpelisib; first compound 0.2 µM) | relative viability (Dovitinib + Alpelisib; first compound 0.6325 µM) | relative viability (Dovitinib + Alpelisib; first compound 2 µM) | relative viability (Dovitinib + Phenformin; first compound 0.02 µM) | relative viability (Dovitinib + Phenformin; first compound 0.06325 µM) | relative viability (Dovitinib + Phenformin; first compound 0.2 µM) | relative viability (Dovitinib + Phenformin; first compound 0.6325 µM) | relative viability (Dovitinib + Phenformin; first compound 2 µM) | relative viability (Dovitinib + Pictilisib; first compound 0.02 µM) | relative viability (Dovitinib + Pictilisib; first compound 0.06325 µM) | relative viability (Dovitinib + Pictilisib; first compound 0.2 µM) | relative viability (Dovitinib + Pictilisib; first compound 0.6325 µM) | relative viability (Dovitinib + Pictilisib; first compound 2 µM)
HCC-366 | 0.155 | 0.301 | 0.297 | 0.239 | 0.357 | 0.545 | 0.393 | 0.478 | 0.505 | 0.446 | 0.628 | 0.6 | 0.636 | 0.57 | 0.641 | 0.172 | 0.123 | 0.159 | 0.137 | 0.186
HCC-827 | 0.203 | 0.213 | 0.244 | 0.237 | 0.212 | 0.931 | 0.926 | 0.918 | 0.987 | 1.03 | 0.395 | 0.402 | 0.426 | 0.41 | 0.405 | 0.932 | 0.942 | 1.07 | 0.963 | 1.01
HOP-62 | 0.364 | 0.534 | 0.697 | 0.62 | 0.551 | 0.804 | 0.844 | 1.27 | 0.896 | 0.829 | 0.616 | 0.713 | 0.742 | 0.55 | 0.646 | 0.578 | 0.753 | 0.605 | 0.665 | 0.632
LC-2-ad | 0.842 | 0.835 | 0.819 | 0.883 | 0.88 | 0.873 | 0.833 | 0.728 | 0.8 | 0.74 | 0.644 | 0.543 | 0.621 | 0.517 | 0.606 | 0.535 | 0.463 | 0.446 | 0.439 | 0.36
LCLC-97TM1 | 0.247 | 0.239 | 0.298 | 0.395 | 0.315 | 0.222 | 0.23 | 0.171 | 0.247 | 0.276 | 0.354 | 0.412 | 0.431 | 0.43 | 0.428 | 0.361 | 0.135 | 0.215 | 0.205 | 0.207
LCLC-103H | 0.777 | 0.802 | 0.784 | 0.704 | 0.699 | 0.875 | 0.973 | 0.918 | 1.06 | 0.761 | 0.357 | 0.331 | 0.336 | 0.345 | 0.305 | 0.661 | 0.555 | 0.645 | 0.614 | 0.577
LK-2 | 0.402 | 0.549 | 0.308 | 0.408 | 0.274 | 1.22 | 1.06 | 0.974 | 0.959 | 0.628 | 0.539 | 0.306 | 0.38 | 0.486 | 0.342 | 0.525 | 0.546 | 0.475 | 0.516 | 0.57
LOU-NH91 | 0.783 | 0.736 | 0.707 | 0.778 | 0.783 | 0.818 | 0.73 | 0.714 | 0.75 | 0.765 | 0.826 | 0.666 | 0.748 | 0.785 | 0.775 | 0.523 | 0.553 | 0.526 | 0.518 | 0.535
LU99A | 0.294 | 0.469 | 0.358 | 0.277 | 0.387 | 0.492 | 0.561 | 0.43 | 0.461 | 0.559 | 0.814 | 0.811 | 0.926 | 0.86 | 0.864 | 0.312 | 0.323 | 0.336 | 0.359 | 0.34
LXF-289 | 1.07 | 1.06 | 1.07 | 1.13 | 1.05 | 1.01 | 1.02 | 1.02 | 1.03 | 0.926 | 0.514 | 0.532 | 0.551 | 0.513 | 0.537 | 0.716 | 0.801 | 0.842 | 0.862 | 0.783
NCI-H23 | 0.287 | 0.233 | 0.23 | 0.275 | 0.377 | 0.788 | 0.638 | 0.766 | 0.631 | 0.627 | 0.888 | 0.843 | 0.746 | 0.737 | 0.754 | 0.44 | 0.444 | 0.451 | 0.493 | 0.433
NCI-H322M | 0.555 | 0.738 | 0.725 | 0.541 | 0.398 | 0.84 | 0.774 | 0.792 | 0.809 | 0.776 | 0.685 | 0.737 | 0.811 | 0.751 | 0.815 | 0.501 | 0.446 | 0.464 | 0.542 | 0.674
NCI-H358 | 0.483 | 0.518 | 0.444 | 0.544 | 0.517 | 0.941 | 0.905 | 0.849 | 0.84 | 0.804 | 0.291 | 0.357 | 0.408 | 0.317 | 0.319 | 0.343 | 0.308 | 0.367 | 0.356 | 0.45
NCI-H441 | 1.17 | 0.977 | 1.22 | 1.2 | 1.27 | 0.787 | 0.902 | 0.909 | 0.548 | 0.566 | 0.981 | 0.786 | 0.767 | 0.898 | 0.839 | 0.521 | 0.528 | 0.517 | 0.477 | 0.47
NCI-H460 | 0.611 | 0.662 | 0.54 | 0.61 | 0.556 | 0.421 | 0.562 | 0.524 | 0.395 | 0.426 | 0.488 | 0.563 | 0.517 | 0.49 | 0.498 | 0.32 | 0.26 | 0.342 | 0.335 | 0.344
NCI-H596 | 1.17 | 1.09 | 1 | 1.03 | 1.1 | 0.462 | 0.542 | 0.563 | 0.499 | 0.457 | 0.711 | 0.864 | 0.785 | 0.815 | 0.804 | 0.372 | 0.394 | 0.376 | 0.387 | 0.428
NCI-H647 | 0.42 | 0.404 | 0.493 | 0.522 | 0.398 | 0.966 | 1.15 | 1.34 | 1.19 | 0.961 | 0.396 | 0.49 | 0.638 | 0.621 | 0.48 | 0.285 | 0.413 | 0.457 | 0.414 | 0.419
NCI-H650 | 1.05 | 1.35 | 0.951 | 1.08 | 1 | 1.13 | 0.972 | 1.07 | 0.997 | 1.2 | 0.442 | 0.417 | 0.446 | 0.461 | 0.504 | 0.867 | 0.789 | 0.931 | 0.758 | 1.01
NCI-H727 | 0.639 | 0.536 | 0.597 | 0.637 | 0.555 | 0.673 | 0.642 | 0.476 | 0.48 | 0.47 | 0.524 | 0.488 | 0.664 | 0.516 | 0.642 | 0.456 | 0.379 | 0.423 | 0.427 | 0.395
NCI-H838 | 0.864 | 0.979 | 0.912 | 0.986 | 0.96 | 0.949 | 1.04 | 1.01 | 0.936 | 0.938 | 0.553 | 0.627 | 0.74 | 0.62 | 0.662 | 0.458 | 0.431 | 0.499 | 0.466 | 0.503
NCI-H1355 | 0.695 | 0.745 | 0.746 | 0.703 | 0.727 | 0.797 | 0.796 | 0.864 | 0.764 | 0.82 | 0.428 | 0.428 | 0.477 | 0.433 | 0.529 | 0.459 | 0.305 | 0.478 | 0.479 | 0.48
NCI-H1395 | 0.425 | 0.366 | 0.435 | 0.374 | 0.398 | 1.07 | 0.988 | 1.11 | 1.09 | 1.12 | 0.455 | 0.415 | 0.488 | 0.445 | 0.462 | 0.563 | 0.518 | 0.651 | 0.783 | 0.612
NCI-H1437 | 1.19 | 1.09 | 1.22 | 1.11 | 1.09 | 0.952 | 0.981 | 0.909 | 0.904 | 0.966 | 0.297 | 0.292 | 0.595 | 0.304 | 0.346 | 0.512 | 0.537 | 0.434 | 0.494 | 0.464
NCI-H1651 | 0.45 | 0.507 | 0.505 | 0.466 | 0.429 | 0.816 | 1.06 | 0.867 | 0.898 | 0.862 | 0.336 | 0.352 | 0.485 | 0.347 | 0.275 | 0.577 | 0.528 | 0.598 | 0.551 | 0.5
NCI-H1666 | 0.876 | 0.859 | 0.882 | 0.855 | 0.812 | 1.01 | 0.933 | 1.02 | 0.883 | 1.07 | 0.612 | 0.579 | 0.588 | 0.554 | 0.566 | 0.607 | 0.533 | 0.548 | 0.322 | 0.375
NCI-H1734 | 0.532 | 0.505 | 0.475 | 0.583 | 0.71 | 0.711 | 0.697 | 0.675 | 0.626 | 0.641 | 0.418 | 0.408 | 0.38 | 0.396 | 0.372 | 0.475 | 0.457 | 0.413 | 0.437 | 0.397
